Entries after “also recorded” stand apart in the source; their conditions may differ.
Key:
Format in all cases: cell-based, human
[1] = tested on: weakly adherent MDA-MB-231 cells; assay: 2D migration assay on step-gradient hydrogels under drug treatment (durotaxis); conditions: WA mammary cells
Text: (§1) A two-step photopolymerization method was used as described previously (Happe et al., 2017) to produce hydrogels with alternating elasticity profiles. Acrylamide concentrations of the prepolymer solutions were modified to obtain elasticities matching that of the tumor and stromal environment of each type of cancer. For breast cancer hydrogels, 3% acrylamide (3.7% for lung, 6.4% for prostate) and 0.4% bis-acrylamide were used for the first prepolymer solution, which was polymerized between a methacrylated 18 mm coverslip and a chlorosilanated glass slide by exposing to ultraviolet light (350 nm) for 5 minutes, using 2-hydroxy-4′-(2-hydroxyethoxy)-2-methylpropiophenone (0.5%) as the photo-initiator. The PA hydrogel was removed from the chlorosilanated glass slide and dehydrated for 1 hour on a hot plate at 30° C. prior to rehydrating with a 2% acrylamide (3.7% for lung, 3.2% for prostate) and 0.4% bis-acrylamide prepolymer solution. The rehydrated gel was again exposed to UV light for 5 min through a high-resolution chrome patterned photomask 200 μm dark stripes and 100 μm clear stripes. The Young's moduli of each region were validated using atomic force microscopy.
(§2) The hydrogels were then placed in a 12-well plate on top of 50 μl of 2 mg/ml of collagen I to adhere the coverslip to the bottom of the well. After the collagen polymerized, the gels were immersed in a solution of sulfosuccinimidyl 6-(4′-azido-2′-nitrophenylamino)hexanoate (0.2 mg/ml, Sulfo-SANPAH; Pierce) dissolved in 4-(2-hydroxyethyl)-1-piperazineethanesulfonic acid buffer (pH 8.4, 50 mM) and exposed to UV light (350 nm) for 10 minutes. After washing several times with PBS, the functionalized surface of the gels was coated with collagen I (150 μg/ml) by incubating overnight at 37° C.
(§3) Weakly and strongly adherent cells were isolated at varying shear stresses using a parallel plate flow chamber (Beri et al., 2020). To ensure sufficient spacing between individual cells, MDA-MB-231 and NCI-H1299 cells were seeded at […] onto a fibronectin (2 μg/cm^2) coated glass plate and incubated overnight. […] For each cell line, PBS free of magnesium and calcium and with 4.5 g/L of dextrose was used to shear cells. Shear stresses used to detach the weakly adherent (WA) population were selected to collect about 20,000 cells at a given flow rate (3 min at 30 dynes/cm^2 for MDA-MB-231, 3 min at 60 dynes/cm^2 for PC-3 and NCI-H1299 cells). The strongly adherent (SA) population was collected after washing away the intermediate population at a higher shear stress (2 min 500 at dynes/cm^2 for MDA-MB-231, 5 min at 300 dynes/cm^2 for NCI-H1299, and 2 min at 750 dynes/cm^2 for PC-3), and detaching the remaining SA population using 0.25% trypsin-EDTA. Media was then pumped though the device to neutralize the trypsin and collect the SA cells. Collected cells were then seeded onto hydrogels and allowed to adhere for […] 2 hours prior to imaging.
(§4) Isolated cells were seeded at ˜1500 cells/well onto step-gradient gels fixed in a 12-well plate and allowed to adhere for no more than 2 hours to ensure a random distribution across the step-gradient at the start of imaging. The cells were imaged over 24 hours using a Nikon Eclipse Ti-S microscope equipped with a temperature and CO2 controller (Pathology Devices Inc., LiveCell). […] Cell trajectories were collected and analyzed using a custom MATLAB script (https://github.com/compactmatterlab/Durotaxis, MathWorks, Natick, MA). […]

[2] = tested on: strongly adherent MDA-MB231 cells; assay: 2D migration assay on collagen gels under microtubule-targeting drug treatment; conditions: nocodazole 0.2 ug/mL, paclitaxel 0.5 ug/mL, tracked 24 hours on collagen gels
Procedure: (§5) To isolate the weakest and strongest 2% of the MDA-MB231 cell population for migration assays, the seeded plate was subjected to a low shear stress (28 dynes/cm^2) for 3 minutes to isolate WA cells in the flow through from the outlet. The shear stress was then increased to a high shear stress (510 dynes/cm^2) for 2 minutes to eliminate intermediate cell fractions. The remaining steps to isolate SA cells are listed above. The weakest MCF10A and […] cells were isolated using 170 and 130 dynes/cm^2 of shear stress respectively; the strongest were isolated using 1275 and 595 dynes/cm^2 respectively. 2D migration assays on collagen gels: 2.4 mg/mL Type I collagen gels were prepared by mixing collagen (Corning) with PBS, DI water, and 1 M NaOH and adjusted to pH 7.0. Gels were added to a 12-well plate and cured at 37° C. for 30 minutes. The weakest and strongest 2% of the cell population were seeded onto the gels and incubated overnight. The cells were imaged with a Nikon Eclipse Ti-S microscope equipped with a temperature- and CO2-controlled stage. Cells were imaged at 10× in brightfield every 15 minutes for 24 hours. The migration data was analyzed via Fiji. The positions were normalized to the starting point and analyzed via a custom MATLAB script to compute instantaneous speed and cell displacement. […] Cells that interacted with other cells for more than 2 hours were not tracked, as cell-cell interactions artificially slowed cell speed. For MDA-MB231 cell migration under drug treatment, cells were treated with either 0.2 μg/mL nocodazole (Cayman Chemical) or 0.5 μg/mL paclitaxel (LC Laboratories). Cells were imaged the following day for 24 hours and tracked as stated above.

[3] = tested on: weakly adherent MDA-MB231 cells; assay: as above; conditions: nocodazole 0.2 ug/mL, paclitaxel 0.5 ug/mL, tracked 24 hours on collagen gels
Procedure: as §5

[4] = tested on: strongly adherent MDA-MB-231 cells; assay: 2D migration assay on step-gradient hydrogels under drug treatment (durotaxis); conditions: SA mammary cells; LPA 1, 10 μM or DMSO; t=3 and t=24 hours
Text: as §1, §2, §3, §4

Compound: Cc1ccc2c(c1)C(=O)[C@]1(O)CCN(c3ccc([N+](=O)[O-])cc3)C1=N2 [blebbistatin, (S)-4′-nitro-Blebbistatin]
- cell speed on soft and stiff substrates ([1]; blebbistatin 100 μM vs DMSO, step-gradient hydrogels): decreased
- durotactic behavior (cell fraction vs hydrogel position), dose dependent response ([1]; blebbistatin 1, 10, 100 μM or DMSO, t=3 and t=27 hours): became more durotactic
- antidurotactic migration ([1]; blebbistatin-treated vs DMSO): much less likely
- likelihood to migrate from the soft substrate into the stiff substrate (durotactic migration) ([1]; blebbistatin-treated vs DMSO): 2 fold

Compound: COC(=O)Nc1nc2ccc(C(=O)c3cccs3)cc2[nH]1 [nocodazole]
- average migration speed [2]: unaffected; also recorded: no change
- average migration speed [3]: migration speed reduced to that of the strongly adherent cells; also recorded: significant decrease in migration speed; also recorded: significant decrease in average speed

Compound: CC(=O)O[C@H]1C(=O)[C@@]2(C)[C@H]([C@H](OC(=O)c3ccccc3)[C@]3(O)C[C@H](OC(=O)[C@H](O)[C@@H](NC(=O)c4ccccc4)c4ccccc4)C(C)=C1C3(C)C)[C@]1(OC(C)=O)CO[C@@H]1C[C@@H]2O [paclitaxel]
- average migration speed [2]: unaffected; also recorded: no change
- average migration speed [3]: migration speed reduced to that of the strongly adherent cells; also recorded: significant decrease in migration speed; also recorded: significant decrease in average speed

Compound: lysophosphatidic acid [lysophophatidic acid]
- durotactic behavior (cell fraction vs hydrogel position), dose dependent response [4]: became less durotactic
